This is an account of results in ChEMBL document CHEMBL6087395, “NGT: Generative AI with Synthesizability Guarantees Discovers MC2R Inhibitors from a Tera-Scale Virtual Screen” (J Med Chem, 2024).

The nature of assay [1]: Antagonist activity at human MC2 receptor expressed in HEK293 cells assessed as inhibition of ACTH-induced cAMP accumulation measured after 70 mins incubation by fluorescence analysis. As to conditions: HEK293, 70 min.
The target of another assay is Melanocortin receptor 3 (Homo sapiens, UniProt P41968). The experiment in a line: Antagonist activity at human MC3 receptor expressed in HEK293 cells assessed as inhibition of ACTH-induced cAMP accumulation measured after 70 mins incubation by fluorescence analysis. Format: functional, cell-based. (In general: Cyclic AMP is a second messenger, typically raised through Gs and lowered through Gi signalling.)

In another assay the target is Melanocortin receptor 4 (Homo sapiens, UniProt P32245). The experiment in a line: Antagonist activity at human MC4 receptor expressed in HEK293 cells assessed as inhibition of ACTH-induced cAMP accumulation measured after 70 mins incubation by fluorescence analysis. Format: functional, cell-based.
Another assay concerns the target Melanocortin receptor 5 (Homo sapiens, UniProt P33032). Briefly: Antagonist activity at human MC5 receptor expressed in HEK293 cells assessed as inhibition of ACTH-induced cAMP accumulation measured after 70 mins incubation by fluorescence analysis. In kind it is functional, cell-based.

Melanocortin receptor 3, sequence (P41968 whole entry): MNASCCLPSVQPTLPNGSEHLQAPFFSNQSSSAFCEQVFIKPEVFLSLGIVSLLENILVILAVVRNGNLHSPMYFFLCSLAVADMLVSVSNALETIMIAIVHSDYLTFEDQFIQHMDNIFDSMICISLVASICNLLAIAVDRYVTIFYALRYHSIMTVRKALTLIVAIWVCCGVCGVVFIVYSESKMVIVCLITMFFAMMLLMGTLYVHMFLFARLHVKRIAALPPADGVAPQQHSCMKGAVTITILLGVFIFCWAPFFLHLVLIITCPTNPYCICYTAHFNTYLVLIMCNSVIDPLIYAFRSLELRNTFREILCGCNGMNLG
Melanocortin receptor 5, sequence (P33032 whole entry): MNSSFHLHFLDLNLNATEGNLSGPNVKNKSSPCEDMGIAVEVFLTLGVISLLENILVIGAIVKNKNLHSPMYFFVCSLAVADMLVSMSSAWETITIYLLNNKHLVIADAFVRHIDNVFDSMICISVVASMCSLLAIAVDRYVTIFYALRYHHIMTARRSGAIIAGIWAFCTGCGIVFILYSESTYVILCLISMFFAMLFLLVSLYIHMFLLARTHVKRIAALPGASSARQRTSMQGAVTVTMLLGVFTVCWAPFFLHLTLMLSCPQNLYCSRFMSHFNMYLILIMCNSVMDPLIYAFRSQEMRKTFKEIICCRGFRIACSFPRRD
Melanocortin receptor 4, sequence (P32245 whole entry): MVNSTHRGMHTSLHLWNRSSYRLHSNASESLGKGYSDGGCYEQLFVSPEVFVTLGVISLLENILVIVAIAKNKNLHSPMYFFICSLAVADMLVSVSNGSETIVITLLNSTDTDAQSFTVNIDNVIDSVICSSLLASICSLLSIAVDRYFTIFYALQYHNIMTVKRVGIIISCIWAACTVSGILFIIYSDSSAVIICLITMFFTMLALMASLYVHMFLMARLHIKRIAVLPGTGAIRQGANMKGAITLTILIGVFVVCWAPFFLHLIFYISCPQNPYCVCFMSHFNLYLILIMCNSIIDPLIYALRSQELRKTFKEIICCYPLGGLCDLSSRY

For orientation: EC50 means the midpoint of the concentration-response curve. For the compound `O=C1NCCOc2ccc(CNCC3(c4ccc(C=C5CCSCC5)s4)CCC3)cc21`, the EC50 amounted to 11 µM in assay [1], 33 µM at Melanocortin receptor 3, 32 µM at Melanocortin receptor 4 and 31 µM at Melanocortin receptor 5.

For the compound `Cc1ccc(-c2cc(Cl)cs2)cc1C1(C(=O)NC2CN(C3CCC3)C2)CC1`, the EC50 at Melanocortin receptor 5 was found to be 16 µM.

For the compound `CCc1ccc(-c2cc(CNC3CCN(c4ccccc4C(N)=O)C3)c(OC)cc2F)s1` (stereo not given), on Melanocortin receptor 3, the concentration for a half-maximal effect (EC50) turned out to be 33 µM.

As to `CCCN1CC(NC(=O)[C@@H]2C[C@H]2c2cccc(-c3cc(Cl)ccc3OC)c2Cl)C1`, the EC50 on Melanocortin receptor 3 amounted to 19 µM.

On to `COc1ccc(C(CN(C)C)NC(=O)COc2ccc(-c3cccc4c3OCC4)cc2Cl)cc1` (stereo not given), for which the EC50 in assay [1] was found to be 4.1 µM; on Melanocortin receptor 3, 37 µM; on Melanocortin receptor 4, 31 µM; on Melanocortin receptor 5, 13 µM.

Turning to `CC1CC(N2CCCC2)CN1C(=O)c1cc(O)cc(-c2cc(Cl)ccc2F)c1` (stereo not given), the 50% effective concentration (EC50) worked out at 6.7 µM in assay [1], 94 µM on Melanocortin receptor 3, 425 µM on Melanocortin receptor 4 and 154 µM at Melanocortin receptor 5.

`COc1cc(C)c(-c2c(C)c(C)c(C(=O)NCC3CCCN3CCCO)c(C)c2C)cc1C` (stereo not given): the values for the 50% effective concentration (EC50) on Melanocortin receptor 3 and on Melanocortin receptor 5 were 156 µM and 150 µM, respectively.

For the compound `O=C(NCC(F)F)C(C1CC2(C1)CC21CCC1)N(C(=O)c1cc2c(cn1)CCCC2)[C@H]1C[C@@H](N2CCCC2)C1` (stereo not given in full), the EC50 is 38 µM in assay [1], 50 µM at Melanocortin receptor 3, 36 µM on Melanocortin receptor 4 and 102 µM on Melanocortin receptor 5.

For `COCCNC(=O)C(C1CC2(C1)CC21CCC1)N(C(=O)c1cn(C)cn1)C1CCCN(c2cccc(C)c2)C1` (stereo not given), the concentration for a half-maximal effect (EC50) in assay [1] stood at 7 µM; on Melanocortin receptor 3 it was 32 µM; on Melanocortin receptor 4, 33 µM; at Melanocortin receptor 5 it was 72 µM.
